# Values joined by “and” are separate entries in the source; they are usually repeats but may differ in a detail not shown here. Equal entries are not always repeated. “Also recorded” adds a separate entry of the source. Where two headings read alike, the source gives them in different places.
# Key:
# [1] = target: T1, α7 nAChR (Rattus norvegicus, UniProt Q05941); assay: Competition binding vs 500 pM [3H]EB, stably transfected HEK cells
# [2] = target: α3β2 nAChR (Rattus norvegicus, UniProt P04757+P12390); assay: as above
# [3] = target: α4β4 nAChR (Rattus norvegicus, UniProt P09483+P12392); assay: as above
# [4] = target: nAChRs (Rattus norvegicus, UniProt P09483+P12390); type: binding; conditions: read-out: Ki AVG
# [5] = target: α2β2 nAChR (Rattus norvegicus, UniProt P12389+P12390); assay: Competition binding vs 500 pM [3H]EB, stably transfected HEK cells
# [6] = target: T2, α4β2 nAChR (Rattus norvegicus, UniProt P09483+P12390); type: binding; conditions: for Ki: read-out: Ki α4β2, vs 500pM [3H]EB, HEK cells, Mean ± SEM of three
# [7] = target: T3, α2β4 nAChR (Rattus norvegicus, UniProt P12389+P12392); assay: Competition binding vs 500 pM [3H]EB, stably transfected HEK cells
# [8] = target: T4, α3β4 nAChR (Rattus norvegicus, UniProt P04757+P12392); assay: as above; conditions: for Selectivity ratio α3β4/α7: ratio of Ki in stably transfected cells
# [9] = system: Human α4β2 nAChRs expressed in K177 cells; conditions: 86Rb+ efflux, ref [22]; cited from earlier work
# [10] = system: α4β2* nAChRs from rat forebrain tissue (FB); assay: biochemical; type: binding; conditions: Ki α3β4 transfected cells vs rat forebrain (FB) α4β2
# [11] = target: α4β2* nAChRs from rat forebrain tissue (FB) (Rattus norvegicus, UniProt P09483+P12390); assay: biochemical; type: binding
# [12] = target: rat α3β4 nAChRs (Rattus norvegicus, UniProt P04757+P12392); assay: cell-based; type: cell-based; conditions: for Agonist activity (in words): α3β4 nAChRs, 86Rb+ efflux
# [13] = system: IMR-32 cells (ganglionic-like α3β4 nAChRs); conditions: 86Rb+ efflux, ref [22]; cited from earlier work
# [14] = target: T4, α3β4 nAChR; conditions: cited from earlier work
# [15] = target: T1, α7 nAChR; conditions: read-out: Ki α7; added for comparison; ref [24]; cited from earlier work
# [16] = system: α4β2* nAChRs from rat forebrain tissue (FB); conditions: cited from earlier work
# [17] = target: T3, α2β4 nAChR; conditions: read-out: Ki α2β4; added for comparison; ref [24]; cited from earlier work
# [18] = target: T2, α4β2 nAChR; conditions: added only for comparison; ref [24]; cited from earlier work
# [19] = read-out: Ki α7, vs 500pM [3H]EB, HEK cells, Mean ± SEM of three
# [20] = read-out: Ki α3β2, vs 500pM [3H]EB, HEK cells, Mean ± SEM of three
# [21] = read-out: Ki α4β4, vs 500pM [3H]EB, HEK cells, Mean ± SEM of three
# [22] = read-out: Ki α2β2, vs 500pM [3H]EB, HEK cells, Mean ± SEM of three
# [23] = read-out: Ki α2β4, vs 500pM [3H]EB, HEK cells, Mean ± SEM of three
# [24] = read-out: Ki α3β4, vs 500pM [3H]EB, HEK cells, Mean ± SEM of three
# [25] = ratio of Ki in stably transfected cells
SMILES,"Ki [1, 19]","Ki [2, 20]","Ki [3, 21]",Ki [4],"Ki [5, 22]",Ki [6],"Ki [7, 23]","Ki [8, 24]",Agonist/antagonist function (in words) [9],EC50 [9],Selectivity ratio α3β4/α4β2*FB [10],EC50 [12],Agonist activity (in words) [12],"Selectivity ratio α3β4/α4β2 [6, 25]",Agonist/antagonist function (in words) [13],Selectivity ratio α3β4/α7 [8],also measured
CN1CCCC1COc1ccccn1 (centres unmarked) [H-11ONM],> 10 µM,> 10 µM,> 10 µM,60.3 µM,> 10 µM,> 10 µM,> 10 µM,> 10 µM,–,–,–,–,–,–,–,–,–
c1ccc(OCC2CCCN2)nc1 (centres unmarked) [H-11ONH],> 10 µM,> 10 µM,> 10 µM,21.8 µM,> 10 µM,> 10 µM,> 10 µM,> 10 µM,–,–,–,–,–,–,–,–,–
"CN1CCC[C@H]1COc1cccnc1 [A-84543, 3-(1-methyl-2(S)-pyrrolidinylmethoxy)pyridine, reference compound]",–,–,–,–,–,–,–,–,full agonists,0.75 µM,351.9,160 ± 40 µM,partial agonist with low potency,"1,357",full agonists,5.58,"Ki [1]: 0.34 ± 0.05 µM; Ki [2]: 0.012 ± 0.001 µM; Ki [3]: 0.15 ± 0.01 µM; Ki [11]: 0.0054 ± 0.0006 µM; Ki [5]: 0.002 ± 0.0003 µM; Emax ([12]; HEK293, read-out: Relative Emax): 37.5 ± 6%; Selectivity ratio α7/α4β2 [6, 25]: 242; Ki [7]: 0.37 ± 0.04 µM; Ki [8]: 1.9 µM"
c1cncc(OC[C@@H]2CCCN2)c1 [H-11MNH],0.065 ± 0.005 µM,0.0013 ± 0.0003 µM,0.031 ± 0.006 µM,0.00046 µM,0.00035 ± 9e-05 µM,0.00039 ± 5e-05 µM,0.076 ± 0.012 µM,0.21 ± 0.04 µM,full agonists,4 µM,295.8,24 ± 1 µM,full agonist with high potency; also recorded: full agonist with high efficacy,538.5,full agonists,3.23,Selectivity ratio α3β4/α4β2*FB ([10]; listed as H-11NMH): ~ 300; Relative Emax [12]: 83.33% and 83.3 ± 3%
"c1cncc(OC[C@@H]2CCN2)c1 [A-85380, 3-(2(S)-azetidinylmethoxy) pyridine]",–,–,–,–,–,–,–,–,–,–,–,–,–,–,–,–,"Selectivity ratio α3β4/α7 [14]: 0.18; Ki [15]: 0.42 ± 0.05 µM; Selectivity ratio α3β4/α4β2*FB [16]: 312; Ki [17]: 0.018 ± 0.004 µM; Selectivity ratio α3β4/α4β2 [18]: 557.14; Selectivity ratio α7/α4β2 [18]: 3,000"
c1cc(OC[C@@H]2CCCN2)ccn1 [H-11PNH],> 10 µM,> 10 µM,> 10 µM,59.2 µM,> 10 µM,> 10 µM,> 10 µM,> 10 µM,–,–,–,–,–,–,–,–,–
